Here are results for two molecules from paper PMC5571211 (Scientific Reports, 2017).

Assay [1] deals with HEK293 cells expressing 5-LOX and FLAP. The experiment in a line: 5-LOX product formation in HEK293 cells expressing 5-LOX and FLAP. In kind it is cell-based. To be noted: HEK293 expressing 5-LOX and FLAP, A23187 plus 3 µM AA. On the procedure: HEK293 cells were cultured in monolayers (37 °C, 5% CO2) in DMEM containing FCS (10%), penicillin (100 U/mL) and streptomycin (100 µg/mL). HEK293 cell lines stably expressing 5-LOX with or without FLAP were selected using geneticin (400 µg/mL) with or without hygromycin (200 µg/mL), respectively, as previously described. Transfection of HEK293 was performed using pcDNA3.1 plasmids and lipofectamine according to the manufacturer’s instructions (Invitrogen, Darmstadt, Germany).
For analysis of 5-LOX product formation in HEK293 cells stably expressing 5-LOX with or without FLAP, cells were harvested by trypsinization, pelleted (1,200 rpm, 5 min, 4 °C) and resuspended in PGC buffer to a final concentration of 1 × 10^6 cells/mL. Aliquots were pre-incubated with test compounds or 0.1% DMSO for 15 min, respectively, and stimulated with 2.5 µM A23187 and 3 µM AA.

For assay [2], the target named is T1, LTC4S (Homo sapiens, UniProt Q16873).
T1 construct: expressed in transfected cells; host or cells: HEK293 stably expressing LTC4S (geneticin selection), microsomal fraction
T1 sequence (Q16873 1-150): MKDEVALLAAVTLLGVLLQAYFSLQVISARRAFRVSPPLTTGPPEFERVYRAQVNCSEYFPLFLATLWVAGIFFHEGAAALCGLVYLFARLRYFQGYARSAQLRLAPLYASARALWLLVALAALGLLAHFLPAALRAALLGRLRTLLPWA
The experiment in a line: LTC4S activity in microsomes of LTC4S-expressing HEK293 cells. In kind it is biochemical. The note with it: cell-free, up to 10 µM. On the procedure: LTC4S activity was assayed by using microsomes of HEK293 cells stably expressing LTC4S, as previously published. In brief, HEK293 expressing LTC4S were cultivated as described above and selected using geneticin (400 µg/mL). Isolation of microsomes was performed as described for mPGES-1 above and microsomes were diluted in potassium phosphate buffer (0.1 M, pH 7.4) with glutathione (5 mM) to a final concentration of 2.5 µg protein per mL. […] To determine enzyme activity, acidified PBS and d5-LTC4-methyl ester (5 ng) as internal standard were added prior solid phase extraction and LTC4-methyl ester formation was analyzed by UPLC-MS/MS as described.

Assay [3] concerns AA release (cPLA2) in neutrophils. In words: [3H]-labeled arachidonic acid release in neutrophils. In kind it is cell-based, human. To be noted: [3H]AA-pre-labelled neutrophils; diflapolin 1 µM, RSC-3388 10 µM. The protocol:
Freshly isolated human neutrophils were resuspended in RPMI 1640 medium to a final cell density of 10^7 cells/mL and incubated with 0.5 µCi/mL of [^3H]-labeled arachidonic acid ([^3H]-AA), corresponding to a concentration of 5 nM of the fatty acid, for 2 hrs (37 °C, 5% CO2). Cells were washed twice to remove unincorporated [^3H]-AA and resuspended in PBS containing glucose (0.1%), fatty acid-free BSA (2 mg/mL) and CaCl2 (1 mM). […] The reaction was stopped on ice and cells were centrifuged at 1,200 rpm (10 min, 4 °C). The collected supernatants were combined with 2 mL of liquid scintillation counting solution (Rotiszint eco plus, Carl Roth, Karlsruhe, Germany) and assayed for radioactivity by scintillation counting (Micro Beta Trilux, Perkin Elmer, Waltham, MA).

Assay [4] concerns the target T2, mPGES-1 (Homo sapiens, UniProt O14684).
T2 construct: A549 cells were cultivated in DMEM medium containing FCS (2%) and IL-1β (2 ng/mL) for 72 h; endogenous in cells; host or cells: A549 cells, IL-1β-induced, microsomal fraction
T2 sequence (O14684 1-152): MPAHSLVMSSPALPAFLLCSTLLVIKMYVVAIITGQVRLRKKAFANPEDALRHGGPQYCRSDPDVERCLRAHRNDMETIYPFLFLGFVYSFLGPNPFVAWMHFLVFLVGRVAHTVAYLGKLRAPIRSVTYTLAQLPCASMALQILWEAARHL
The note with it: cited from earlier work.

For assay [5], the system named is 5-LOX product formation (FLAP) in human neutrophils. The experiment in a line: 5-LOX product formation in intact human neutrophils stimulated with Ca2+-ionophore A23187. In kind it is cell-based. To be noted: 5 h, read-out: IC50, formation of LTB4 and its isomers and of 5-H(p)ETE (5-LOX product formation); intact human neutrophils (PMNL), Ca2+-ionophore A23187, no AA supplementation. The protocol:
After elution with methanol, samples were analyzed by RP-HPLC using a C-18 Radial-PAK column (Waters, Eschborn, Germany).

The target of assay [6] is T3, human recombinant 5-LOX (Homo sapiens, UniProt P09917).
T3 construct: made in house; host or cells: E. coli BL21
T3 sequence (P09917 1-674): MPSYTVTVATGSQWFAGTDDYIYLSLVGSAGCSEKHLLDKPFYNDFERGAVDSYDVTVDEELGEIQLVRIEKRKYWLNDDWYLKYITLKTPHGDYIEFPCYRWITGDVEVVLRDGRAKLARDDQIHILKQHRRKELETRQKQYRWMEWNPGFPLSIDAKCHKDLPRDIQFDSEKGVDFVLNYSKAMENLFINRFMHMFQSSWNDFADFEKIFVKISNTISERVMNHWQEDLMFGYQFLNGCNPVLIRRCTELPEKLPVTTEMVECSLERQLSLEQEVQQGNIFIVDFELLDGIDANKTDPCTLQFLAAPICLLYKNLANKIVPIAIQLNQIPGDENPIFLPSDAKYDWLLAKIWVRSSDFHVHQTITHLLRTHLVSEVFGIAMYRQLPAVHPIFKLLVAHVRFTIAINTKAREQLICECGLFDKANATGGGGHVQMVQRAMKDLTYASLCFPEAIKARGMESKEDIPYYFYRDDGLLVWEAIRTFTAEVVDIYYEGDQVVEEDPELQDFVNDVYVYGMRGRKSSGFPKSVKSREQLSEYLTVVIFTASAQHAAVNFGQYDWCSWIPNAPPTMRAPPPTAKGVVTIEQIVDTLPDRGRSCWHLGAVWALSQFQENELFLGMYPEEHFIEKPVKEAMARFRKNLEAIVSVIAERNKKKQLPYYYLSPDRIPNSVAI
The experiment in a line: Activity assay of isolated human recombinant 5-LOX (cell-free). In kind it is biochemical. To be noted: cell-free assays, not further specified.
Method: To determine 5-LOX product formation, aliquots (0.5 µg purified 5-LOX in 1 mL PBS plus 1 mM EDTA) were pre-incubated with the test compounds or vehicle (0.1% DMSO) on ice for 15 min and then stimulated with 20 µM AA and CaCl2 (2 mM) for 10 min at 37 °C. The reaction was stopped with one volume of ice-cold methanol and 5-LOX products were analyzed by RP-HPLC as previously described[58]. Briefly, 530 µl acidified PBS and 200 ng of internal PGB1 standard were added and solid phase extraction using C18 RP-columns (100 mg, UCT, Bristol, PA, USA) was performed. After elution with methanol, samples were analyzed by RP-HPLC using a C-18 Radial-PAK column (Waters, Eschborn, Germany). Unless stated otherwise, 5-LOX products include all-trans-isomers of LTB4 and 5-HpETE as well as its corresponding alcohol 5-HETE.

In the case of `Cc1cc(OCc2nc3ccccc3s2)ccc1NC(=O)Nc1ccc(Cl)c(Cl)c1` [diflapolin, N-[4-(benzothiazol-2-ylmethoxy)-2-methylphenyl]-N′-(3,4-dichlorophenyl)urea], in assay [1], the “inhibition of 5-LOX product formation” value was “strongly inhibited”. Moreover, the “inhibition of LTC4S activity” value in assay [2] is on record as “failed to inhibit”. Also, the “release of AA upon A23187-stimulation” value in assay [3] is reported as “did not inhibit”.
As to `CC(C)c1ccc2c(c1)c(SC(C)(C)C)c(CC(C)(C)C(=O)O)n2Cc1ccc(Cl)cc1` [MK886, 3-[1-(4-chlorobenzyl)-3-t-butyl-thio-5-isopropylindol-2-yl]-2,2 - dimethylpropanoic acid], the “inhibition of MAPEG family member mPGES-1” value in assay [4] is “inhibit”. Moreover, the IC50 (usually the concentration that gives 50% inhibition) in assay [5] is 0.01 to 0.014 µM; in assay [6], above 10 µM.
